Test results: ChEMBL document CHEMBL1138130, “Synthesis and antibacterial activity of 3-O-acyl-6-O-carbamoyl erythromycin A derivatives” (2006)
Converted amounts (≈) assume the structure as drawn.

Key:
Type in all cases: functional
Staphylococcus aureus = assay: Antibacterial activity against Staphylococcus aureus OC4172
Streptococcus pneumoniae [1] = assay: Antibacterial activity against erm(B) ribosomal methylase gene containing Streptococcus pneumoniae OC4051
Streptococcus pneumoniae [2] = assay: Antibacterial activity against Streptococcus pneumoniae OC9132
Streptococcus pneumoniae [3] = assay: Antibacterial activity against Mef(A) efflux pump containing Streptococcus pneumoniae OC4438
Haemophilus influenzae = assay: Antibacterial activity against Haemophilus influenzae OC4882

SMILES | MIC (Staphylococcus aureus) | MIC (Streptococcus pneumoniae [1]) | MIC (Streptococcus pneumoniae [2]) | MIC (Streptococcus pneumoniae [3]) | MIC (Haemophilus influenzae)
CC[C@H]1OC(=O)[C@H](C)[C@@H](OC(=O)N(CC)CC)[C@H](C)[C@@H](O[C@@H]2O[C@H](C)C[C@H](N(C)C)[C@H]2O)[C@](C)(OC(=O)NC/C=C/c2ccc(-c3ncccn3)cc2)C[C@@H](C)C(=O)[C@H](C)[C@H]2NC(=O)O[C@@]21C | 0.5 µg/mL (≈ 0.534 µM) | 0.12 µg/mL (≈ 0.128 µM) | 0.06 µg/mL (≈ 0.064 µM) | 0.06 µg/mL (≈ 0.064 µM) | 8 µg/mL (≈ 8.54 µM)
CC[C@H]1OC(=O)[C@H](C)[C@@H](OC(=O)N2CCCC2)[C@H](C)[C@@H](O[C@@H]2O[C@H](C)C[C@H](N(C)C)[C@H]2O)[C@](C)(OC(=O)NC/C=C/c2ccc(-c3ncccn3)cc2)C[C@@H](C)C(=O)[C@H](C)[C@H]2NC(=O)O[C@@]21C | 0.5 µg/mL (≈ 0.535 µM) | 0.25 µg/mL (≈ 0.267 µM) | 0.06 µg/mL (≈ 0.0642 µM) | 0.12 µg/mL (≈ 0.128 µM) | 16 µg/mL (≈ 17.1 µM)
CC[C@H]1OC(=O)[C@H](C)[C@@H](OC(=O)N(CC)Cc2cccnc2)[C@H](C)[C@@H](O[C@@H]2O[C@H](C)C[C@H](N(C)C)[C@H]2O)[C@](C)(OC(=O)NC/C=C/c2ccc(-c3ncccn3)cc2)C[C@@H](C)C(=O)[C@H](C)[C@H]2NC(=O)O[C@@]21C | 0.5 µg/mL (≈ 0.5 µM) | 0.25 µg/mL (≈ 0.25 µM) | 0.06 µg/mL (≈ 0.06 µM) | 0.12 µg/mL (≈ 0.12 µM) | 16 µg/mL (≈ 16 µM)
CC[C@H]1OC(=O)[C@H](C)[C@@H](OC(=O)N(C)C)[C@H](C)[C@@H](O[C@@H]2O[C@H](C)C[C@H](N(C)C)[C@H]2O)[C@](C)(OC(=O)NC/C=C/c2ccc(-c3ncccn3)cc2)C[C@@H](C)C(=O)[C@H](C)[C@H]2NC(=O)O[C@@]21C | 0.25 µg/mL (≈ 0.275 µM) | 0.25 µg/mL (≈ 0.275 µM) | 0.03 µg/mL (≈ 0.033 µM) | 0.06 µg/mL (≈ 0.066 µM) | 8 µg/mL (≈ 8.8 µM)
CC[C@H]1OC(=O)[C@H](C)[C@@H](OC(=O)Cc2cccnc2)[C@H](C)[C@@H](O[C@@H]2O[C@H](C)C[C@H](N(C)C)[C@H]2O)[C@](C)(OC(=O)NC/C=C/c2cnc3ccccc3c2)C[C@@H](C)C(=O)[C@H](C)[C@H]2NC(=O)O[C@@]21C | 0.5 µg/mL (≈ 0.538 µM) | 0.12 µg/mL (≈ 0.129 µM) | 0.06 µg/mL (≈ 0.0645 µM) | 0.06 µg/mL (≈ 0.0645 µM) | 4 µg/mL (≈ 4.3 µM)
CC[C@H]1OC(=O)[C@H](C)[C@@H](OC(=O)N(C)c2ccncc2)[C@H](C)[C@@H](O[C@@H]2O[C@H](C)C[C@H](N(C)C)[C@H]2O)[C@](C)(OC(=O)NC/C=C/c2ccc(-c3ncccn3)cc2)C[C@@H](C)C(=O)[C@H](C)[C@H]2NC(=O)O[C@@]21C | 1 µg/mL (≈ 1.03 µM) | 0.25 µg/mL (≈ 0.257 µM) | 0.06 µg/mL (≈ 0.0617 µM) | 0.25 µg/mL (≈ 0.257 µM) | 8 µg/mL (≈ 8.23 µM)
CC[C@H]1OC(=O)[C@H](C)[C@@H](OC(=O)N(C)Cc2cccnc2)[C@H](C)[C@@H](O[C@@H]2O[C@H](C)C[C@H](N(C)C)[C@H]2O)[C@](C)(OC(=O)NC/C=C/c2ccc(-c3ncccn3)cc2)C[C@@H](C)C(=O)[C@H](C)[C@H]2NC(=O)O[C@@]21C | 0.25 µg/mL (≈ 0.254 µM) | 0.5 µg/mL (≈ 0.507 µM) | 0.03 µg/mL (≈ 0.0304 µM) | 0.06 µg/mL (≈ 0.0608 µM) | 4 µg/mL (≈ 4.06 µM)
CC[C@H]1OC(=O)[C@H](C)[C@@H](OC(=O)NC2CCCCC2)[C@H](C)[C@@H](O[C@@H]2O[C@H](C)C[C@H](N(C)C)[C@H]2O)[C@](C)(OC(=O)NC/C=C/c2ccc(-c3ncccn3)cc2)C[C@@H](C)C(=O)[C@H](C)[C@H]2NC(=O)O[C@@]21C | 1 µg/mL (≈ 1.04 µM) | 4 µg/mL (≈ 4.15 µM) | 0.12 µg/mL (≈ 0.125 µM) | 0.25 µg/mL (≈ 0.26 µM) | 16 µg/mL (≈ 16.6 µM)
CC[C@H]1OC(=O)[C@H](C)[C@@H](OC(=O)Cc2cccnc2)[C@H](C)[C@@H](O[C@@H]2O[C@H](C)C[C@H](N(C)C)[C@H]2O)[C@](C)(OC(=O)NC/C=C/C=C/c2cccnc2)C[C@@H](C)C(=O)[C@H](C)[C@H]2NC(=O)O[C@@]21C | 0.5 µg/mL (≈ 0.552 µM) | 0.12 µg/mL (≈ 0.132 µM) | 0.03 µg/mL (≈ 0.0331 µM) | 0.12 µg/mL (≈ 0.132 µM) | 2 µg/mL (≈ 2.21 µM)
CC[C@H]1OC(=O)[C@H](C)[C@@H](OC(=O)Cc2cccnc2)[C@H](C)[C@@H](O[C@@H]2O[C@H](C)C[C@H](N(C)C)[C@H]2O)[C@](C)(OC(=O)NC/C=C/c2cnc(C3CC3)nc2)C[C@@H](C)C(=O)[C@H](C)[C@H]2NC(=O)O[C@@]21C | 0.5 µg/mL (≈ 0.543 µM) | 0.25 µg/mL (≈ 0.271 µM) | 0.06 µg/mL (≈ 0.0651 µM) | 0.25 µg/mL (≈ 0.271 µM) | 2 µg/mL (≈ 2.17 µM)
CC[C@H]1OC(=O)[C@H](C)[C@@H](O[C@H]2C[C@@](C)(OC)[C@@H](O)[C@H](C)O2)[C@H](C)[C@@H](O[C@@H]2O[C@H](C)C[C@H](N(C)C)[C@H]2O)[C@](C)(O)C[C@@H](C)C(=O)[C@H](C)[C@@H](O)[C@]1(C)O [ERYTHROMYCIN] | 0.5 µg/mL (≈ 0.681 µM) | > 16 µg/mL | 0.06 µg/mL (≈ 0.0818 µM) | 4 µg/mL (≈ 5.45 µM) | 8 µg/mL (≈ 10.9 µM)
CC[C@H]1OC(=O)[C@H](C)C(=O)[C@H](C)[C@@H](O[C@@H]2O[C@H](C)C[C@H](N(C)C)[C@H]2O)[C@](C)(OC)C[C@@H](C)C(=O)[C@H](C)[C@H]2N(CCCCn3cnc(-c4cccnc4)c3)C(=O)O[C@]12C [TELITHROMYCIN] | 0.25 µg/mL (≈ 0.308 µM) | 0.06 µg/mL (≈ 0.0739 µM) | 0.03 µg/mL (≈ 0.0369 µM) | 0.25 µg/mL (≈ 0.308 µM) | 2 µg/mL (≈ 2.46 µM)
